From US20060117411A1, “Enhancing plant pathogen resistance via increasing BiP levels” (priority 1998, published 2006)

Experiments:
PR1 mRNA [1] = experiment: SA spraying of Arabidopsis WT and saiI mutant, Northern blot of PR1; assay type: in vivo, Arabidopsis thaliana; conditions: SA 5 mM
Experimental: WT and saiI mutants of the same ecotype were sprayed with SA (5 mM) and incubated in the light. Total RNA was extracted and probed with the PR1 and BiP gene from Arabidopsis. The induction of PR1 in WT Arabidopsis was detected 3 hours after SA-treatment and continued to increase until 8 hours (FIG. 10). […] As in tobacco plants, BiP mRNA levels increase prior to PR1 transcripts in SA treated Arabidopsis plants (FIG. 10) and diminish after prolonged incubations (data not shown).
Plants of Nicotiana tabacum cultivar Petit Havana (Maliga et al., 1973) were axenically grown in MS medium (Murashige and Skoog, 1962), 2% Sucrose in a temperature controlled room at 25° C. with a 16 h day/[…] regime and a light irradiance of 200 μE.m^−2.s^−1. Arabidopsis thaliana Nössen WT and saiI plants (Shah et al., 1997) were grown under the same conditions.
Plants were sprayed with 5 mM SA and 0.5% Tween 20 from all sides, ensuring contact on both sides of each leaf of the plant. Typically, 10 ml of the SA solution was sprayed onto each plant. Plants were then transferred from the 16 h day/8 h night regime to constant light regime.
Protoplasts RNAs were extracted as described by Jones et al., (1985). Leaves were ground in frozen liquid nitrogen and transferred to NTES buffer (0.1 M NaCl, 10 mM Tris pH 7.5, 1 mM EDTA, 1% SDS). Protoplasts samples were frozen in liquid nitrogen and thawed in NTES buffer. RNA was extracted after adding an equal volume of phenol/chloroform. Ethanol precipitation was carried out after incubation at −20° C. for 16 hours. The pellet was resuspended and RNA was selectively precipitated with LiCl (2M LiCl) for 2 hours on ice. The pellet was washed with 70% ethanol and resuspended in diethyl pyrocarbonate-treated water. Gel blots of total RNA denatured in formamide and formaldehyde were prepared. RNA was blotted onto Hybond-N membrane (Amersham Corp), as described by the manufacturer. […]

PR1 mRNA [2] = conditions: same experimental system, Vidal et al, 1997; cited from earlier work
[3] = tested on: β-1,3-glucanase gene expression; experiment: Leaf treatment of tobacco plants, Northern blot of β-1,3-glucanase transcripts in local and systemic leaves; assay type: in vivo, Nicotiana tabacum; conditions: 3 and 8 hours of incubation
Experimental: (§1) We have shown that treatment of tobacco plants with cell wall-degrading enzymes (CDE) leads to the rapid induction of β-1,3-glucanase and other PR genes, both locally and systemically (Vidal et al, 1997). […] We used a commercial preparation of fungal CDEs instead of custom made Erwinia-derived hydrolases to increase reproducibility. One leaf from each tobacco plant was treated with CDEs and the induction of BiP gene expression was analysed in the treated (local) and untreated (systemic) leaves from the same plant. […] This induction was observed locally as well systemically with the same timing and intensity. β-1,3-glucanase transcript accumulation is detectable only after 4 hours of incubation and reaches its plateau after 8 hours as described previously (Vidal et al, 1997). Whereas BiP induction is transient, β-1,3-glucanase mRNA levels continue to be high after prolonged incubation times (24-48 hours). […] The signal involved in the systemic response of BiP gene expression must therefore be transported very rapidly from the local leaf to the distal leaves.
Even though BiP induction occurs prior to β-1,3 glucanase induction, we cannot rule out that other, as yet unidentified defence related proteins are induced more rapidly and perhaps before BiP in our experimental system. […]

BiP gene expression = experiment: Leaf treatment of tobacco plants, Northern blot of BiP transcripts in treated (local) and untreated (systemic) leaves; assay type: in vivo, Nicotiana tabacum; conditions: after 3 and 8 hours; tunicamycin 0.02 mM
From the text: as §1, with “reproducibility.” for “reproducibility. One leaf from each tobacco plant was treated with CDEs and the induction of BiP gene expression was analysed in the treated (local) and untreated (systemic) leaves from the same plant.”
Even though BiP induction occurs prior to β-1,3 glucanase induction, we cannot rule out that other, as yet unidentified defence related proteins are induced more rapidly and perhaps before BiP in our experimental system. If this were the case, it would still be possible that the rapid induction of BiP is the result of a feedback mechanism due to ER stress resulting from the increased synthesis of proteins on the rough ER, the unfolded protein response (UPR). […]

Row | Compound | PR1 induction during SA-treatment in saiI mutant (PR1 mRNA [1]; Arabidopsis saiI mutant) | time after SA-treatment at which induction of PR1 is detected (PR1 mRNA [1]; WT Arabidopsis, light) | time until which PR1 induction continues to increase (PR1 mRNA [1]; WT Arabidopsis, light) | time until which PR1 continues to accumulate (shown previously) (PR1 mRNA [2]) | expression of β-1,3-glucanase, local and systemic [3] | BiP mRNA levels in the treated leaf (BiP gene expression)
1 | O=C(O)c1ccccc1O [SA, Salicylic Acid] | completely abolished | 3 h | ≤ 8 h | ≤ 48 h |  | 
2 | tunicamycin |  |  |  |  | neither locally nor systemically induced | strong increase
